Data: patent publication US10501436B2, “Compounds and methods of use” (Medivation Technologies LLC, priority 2014, dated 2019)

How the values were obtained:
[1] = Pharmacokinetics and bioavailability in male mice after a single dose; format: in vivo
ALK2 (ACVR1) = ALK2 (ACVR1) (Homo sapiens (Human), UniProt Q04771); experiment: In vitro kinase assay (33P ATP), ALK2; format: biochemical; settings: 10 μM ATP; read-out: Inhibition of ALK2 (IC50 μM)
p-SMAD2 = p-SMAD2 inhibition, Western Blot Analysis in MDA-MB-231 cells treated with TGFβ; format: cell-based; settings: Homo sapiens, TGFβ 2 ng/mL, samples run in triplicate; for inhibition at 0.1 µM: 0.1 μM compound, read-out: Average p-SMAD2 inhibition @ 0.1 μM (% Inh); for inhibition at 0.5 µM: 0.5 μM compound, read-out: Average p-SMAD2 inhibition @ 0.5 μM (% Inh)
[2] = Plasma and brain concentrations at 0.5 and 1 h; format: in vivo, mice; settings: PO

ALK2 (ACVR1), sequence (Q04771 21-509): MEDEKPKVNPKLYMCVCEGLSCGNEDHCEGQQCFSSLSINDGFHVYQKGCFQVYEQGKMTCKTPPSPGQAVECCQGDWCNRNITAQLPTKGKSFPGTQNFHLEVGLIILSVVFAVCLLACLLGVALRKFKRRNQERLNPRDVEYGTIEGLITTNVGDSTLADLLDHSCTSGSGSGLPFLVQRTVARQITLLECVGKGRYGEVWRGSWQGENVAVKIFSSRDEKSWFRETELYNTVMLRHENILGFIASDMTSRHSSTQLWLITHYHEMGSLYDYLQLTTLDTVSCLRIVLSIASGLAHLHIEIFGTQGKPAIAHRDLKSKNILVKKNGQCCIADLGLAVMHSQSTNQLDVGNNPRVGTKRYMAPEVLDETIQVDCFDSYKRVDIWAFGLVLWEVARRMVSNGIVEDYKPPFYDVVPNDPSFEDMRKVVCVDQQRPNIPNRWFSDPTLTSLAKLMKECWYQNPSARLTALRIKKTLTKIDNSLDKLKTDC

With `C=C(C)c1cnc(-c2cc(Cl)ccc2F)cc1Nc1ccncc1C(=O)NCC(C)O` (single isomer, unassigned) [Compound 3a] the AUClast ([1]; Intravenous, 2 mg/kg) was 2.56 µM·h, the CL ([1]; Intravenous, 2 mg/kg) was 12.8 mL/min/kg and the AUClast ([1]; Oral, 10 mg/kg) was 10.5 µM·h.
Compound `COc1cnc(-c2cc(Cl)ccc2F)cc1Nc1ccncc1C(=O)NCC(C)O` (single isomer, unassigned) [Compound 13a] has an IC50 (ALK2 (ACVR1)) of over 100 µM.
`CC(C)c1cnc(-c2cc(Cl)ccc2F)cc1Nc1n[nH]cc1C(=O)NC[C@H](C)O` (single isomer, unassigned) [Compound 21a, 3-[[2-(5-chloro-2-fluoro-phenyl)-5-isopropyl-4-pyridyl]amino]-N-(2-hydroxypropyl)-1H-pyrazole-4-carboxamide] showed an inhibition at 0.1 µM (p-SMAD2) of 4.67% and an inhibition at 0.5 µM (p-SMAD2) of 7.67%.
With `C=C(C)c1c(Nc2ccncc2C(=O)NCC(C)O)cc(-c2cc(Cl)ccc2F)nc1N` (single isomer, unassigned) [Compound 23a] the AUClast ([1]; Intravenous, 2 mg/kg) was 1.11 µM·h, the CL ([1]; Intravenous, 2 mg/kg) was 66 mL/min/kg and the AUClast ([1]; Oral, 10 mg/kg) was 0.907 µM·h.
`CC(C)c1cnc(-c2cc(Cl)ccc2F)cc1Nc1ccncc1CNC[C@H](C)O` [Compound 5a, (S)-1-((4-(2-(5-chloro-2-fluorophenyl)-5-isopropylpyridin-4-ylamino)pyridin-3-yl)methylamino)propan-2-ol] showed an inhibition at 0.1 µM (p-SMAD2) of 14.3% and an inhibition at 0.5 µM (p-SMAD2) of 41.3%.
Compound `C=C(C)c1cnc(-c2cc(Cl)ccc2F)cc1Nc1ccncc1C(=O)N[C@H](C)CO` [Compound 7b, (2R)-4-[[2-(5-chloro-2-fluoro-phenyl)-5-isopropenyl-4-pyridyl]amino]-N-(2-hydroxy-1-methyl-ethyl)pyridine-3-carboxamide] has an IC50 (ALK2 (ACVR1)) of over 100 µM.
For `C=Cc1cnc(-c2cc(Cl)ccc2F)cc1Nc1ccncc1C(=O)NC[C@H](C)O` [Compound 10a, (S)-4-(2-(5-chloro-2-fluorophenyl)-5-vinylpyridin-4-ylamino)-N-(2-hydroxypropyl) nicotinamide], the inhibition at 0.5 µM (p-SMAD2) was 64.3%.
In the case of `CC(C)c1cnc(-c2cc(Cl)ccc2F)cc1Nc1ccncc1C(=O)NCCN` [Compound 19, N-(2-aminoethyl)-4-[[2-(5-chloro-2-fluoro-phenyl)-5-isopropyl-4-pyridyl]amino]pyridine-3-carboxamide], the “Brain Concentration (μM)” value ([2]; 0.5 h) is reported as “BLQ” and the “Brain Concentration (μM)” value ([2]; 1 h) is reported as “BLQ”.
For `C=C(C)c1cnc(-c2cc(Cl)ccc2F)cc1Nc1n[nH]cc1C(=O)NC[C@H](C)O` [Compound 20a, (S)-3-[[2-(5-chloro-2-fluoro-phenyl)-5-isopropenyl-4-pyridyl]amino]-N-(2-hydroxypropyl)-1H-pyrazole-4-carboxamide], the inhibition at 0.1 µM (p-SMAD2) was 0% and the inhibition at 0.5 µM (p-SMAD2) was 3.67%.
